US11911396B2, “Use of compound in preparation of drug for treating cerebral small vessel disease” (GUANGZHOU CELLPROTEK PHARMACEUTICAL CO., LTD, priority 2017, dated 2024)

How the values were obtained:
[1] = test system: Heme Oxygenase-1 (HO-1); experiment: Western blot of HO-1 in prefrontal cortex brain tissue, acute hypobaric hypoxia model; format: in vivo, cynomolgus monkeys; settings: after hypobaric hypoxia, FIG. 4
Text: FIG. 4. Triol enhanced the clearance of free hemoglobin in brain tissue by up-regulating CD163 and Heme Oxygenase-1 (HO-1) protein levels. A. Protein expression of hemoglobin scavenger receptor CD163 and heme oxygenase HO-1 in the brain tissue of the prefrontal cortex of cynomolgus monkeys; B. Statistics of protein relative gray scan values. The gray value was obtained by scanning with Image Lab software, and the relative value was obtained after normalizing with α-Tubulin. NN: Normobaric Normoxia group (N=3); HH: Hypobaric Hypoxia group (N=3); HH+Triol: Hypobaric Hypoxia with Triol administration group (N=3); HH+PROG: Hypobaric Hypoxia with progesterone administration group (N=3). […]
1) Preparation of protein samples (see the instructions of M-PER protein lysate): After the cells had been processed for the specified time, the medium was aspirated and then washed with 4° C. pre-chilled PBS (0.01M pH7.2˜7.3) for 3 times. […] 2) BCA protein quantification (see the instructions of BCA protein quantification kit): corresponding components were added to a 96-well detection plate by the ratio of quantification reagent A solution:B solution:ddH2O:protein=100:2:7.5:5, and albumin standards diluted in gradient concentration were added to draw a standard curve. […] After the reaction, the absorbance of each well at a wavelength of 562 nm was detected using a microplate reader. […]

[2] = test system: Iba1; experiment: Immunofluorescence of Iba1 in prefrontal cortex brain tissue, acute hypobaric hypoxia model; format: in vivo, cynomolgus monkeys; settings: FIG. 5
Text: FIG. 5. […] A. Immunofluorescence imaging of CD163 and Iba-1 in the brain tissue of cynomolgus monkeys. B. Statistics of relative fluorescence intensity of CD163 and Iba-1. C. Correlation analysis of relative fluorescence intensity of CD163 and Iba-1. NN: Normobaric Normoxia group; HH: Hypobaric Hypoxia group; HH+Triol: Hypobaric Hypoxia with Triol administration group; HH+PROG: Hypobaric Hypoxia with progesterone administration group. One-way ANOVA analysis and Dunnutt's t test were used to perform statistical tests, and in the latter each group was compared with the HH group, ***, p<0.001.
The thickness of paraffin sections was 5 μm. For fresh paraffin sections, the sections were dried at 37° C. overnight and then dried at 55° C. for 30 minutes. The sections were quickly placed in xylene for dewaxing. After fully dewaxing with xylene for 10 min for 3 times, absolute ethanol-95% ethanol-90% ethanol-80% ethanol-70% ethanol-50% ethanol-ddH2O were successively used for gradient rehydration. After rehydration, the sections were placed in EDTA antigen repair solution for microwave high temperature repair. After the repair was completed, it was allowed naturally cool down to room temperature. […] NIS-Elements Analysis software was used to analyze the fluorescence intensity of confocal images, which was then normalized with the fluorescence intensity per unit area according to the built-in scale. […]

## C[C@@]12CCCC1C1C[C@@H](O)[C@@]3(O)C[C@@H](O)CC[C@]3(C)C1CC2 (stereo partly drawn) [Triol, 5α-androst-3β,5,6β-triol]
[1]
  expression of HO-1: further up-regulated
[2]
  Iba1 expression: down-regulation
